The experiment in a line: yeast growth inhibition, transport mutant vs wild type, confirmation, post-Golgi transport mutant, OD600 growth rate (AID 839). The following applies: yeast transport mutant vs control strains, stronger effect = higher value.
Setting [1] is: measured here: mutant growth inhibition 20 uM, at 20 µM.
Where [2] appears, read: measured here: wild type growth inhibition 20 uM, at 20 µM.
[3] abbreviates: measured here: wild type growth inhibition 40 uM, at 40 µM.

Activity calls are given as the source filed them. The rule behind the calls is not given here.

`CC1CC(C)CN(CCOc2ccc(Cl)cc2Cl)C1` (stereo unspecified): the growth inhibition is, setting by setting: (at 40 µM) 46.7%; under setting [1], 30.7%; under setting [2], 8.64%; under setting [3], 14.7%.
The like results for `N=c1c2c(-c3ccccc3)c(-c3ccccc3)n(Cc3ccco3)c2ncn1Cc1ccccc1` were, in that order, 38.2%, 8.14%, 9.7% and 12.7%.
In the case of `CCCCCOc1ccc(Cl)cc1CN1CCOCC1`, the growth inhibition (at 40 µM) is 17.8%, the growth inhibition under setting [1] was 26%, the growth inhibition under setting [2] is 7.83% and the growth inhibition under setting [3] is -7.6%.
In the case of `Cc1cc(C(C)(C)C)ccc1OCCN1CCCC1`, the growth inhibition (at 40 µM) was 18.2%, the growth inhibition under setting [1] was found to be 18.4%, the growth inhibition under setting [2] turned out to be 7.77% and the growth inhibition under setting [3] came to 7.54%.
Turning to `CC(C)c1ccc(C(=O)CSc2n[nH]c(-c3ccncc3)n2)cc1`, the growth inhibition (at 40 µM) was 12.5%, the growth inhibition under setting [1] is 7.43%, the growth inhibition under setting [2] worked out at 4.42% and the growth inhibition under setting [3] worked out at 13.6%.
The like results for `Cc1ccc(OCC(O)CN2CCN(Cc3ccc4c(c3)OCO4)CC2)c(C)c1` (stereo unspecified) were, in that order, 33%, 12.9%, 2.63% and 10%.
As to `Clc1ccc(Cn2nnc(-c3ccc(CN4CCOCC4)cc3)n2)cc1`, the growth inhibition was 26.7% (at 40 µM), 11.9% under setting [1], 8.16% under setting [2] and 12.6% under setting [3].
For the molecule `Cc1ccc(Cl)c(OCCCCN(C)Cc2ccccc2)c1`, the growth inhibition is 72.6% (at 40 µM), 31.6% under setting [1], 11.1% under setting [2] and 22.1% under setting [3].
For `CC1CN(CC(O)COc2ccc(C(C)C)cc2)CC(C)O1` (stereo unspecified), the growth inhibition runs as follows: (at 40 µM) 8.85%; under setting [1], 5.56%; under setting [2], -2.84%; under setting [3], -1.47%.
Take `Cc1ccc(CN2CCN(/N=C/c3cc(Br)ccc3O)CC2)cc1`: the growth inhibition runs as follows: (at 40 µM) 21.1%; under setting [1], 18.9%; under setting [2], 7.91%; under setting [3], 7.23%.
The like results for `O=S(=O)(c1ccc(Cl)cc1)N1CCN(C2CCN(Cc3ccccc3)CC2)CC1` were, in that order, 10.4%, 7.74%, 0.396% and 3.66%.
For the molecule `CCOC(=O)COc1ccccc1C1Nc2ccccc2C(=O)N1c1cccc(Cl)c1` (stereo unspecified), the growth inhibition reads like this: (at 40 µM) 21.1%; under setting [1], 19.4%; under setting [2], 13%; under setting [3], 24.8%.
The like results for `C=C(C)C1CC=C(CN2CC(C)OC(C)C2)CC1` (stereo unspecified) were, in that order, 4.31%, 11.8%, 13.7% and 1.76%.
Turning to `Cc1ccc(C(=O)c2c(NC(=O)c3ccncc3)sc3c2CCCC3)cc1`, the growth inhibition is, setting by setting: (at 40 µM) 14.7%; under setting [1], 19.8%; under setting [2], 13.5%; under setting [3], 18.9%.
Consider `CC1CCCN(CCOCCOc2ccc(Cl)cc2Br)C1` (stereo unspecified), for which the growth inhibition (at 40 µM) is 53.2%, the growth inhibition under setting [1] is 23.4%, the growth inhibition under setting [2] came out at 8.13% and the growth inhibition under setting [3] worked out at 12.7%.
Take `O=C(COc1ccc(Cl)cc1Cl)NCCCN1CCOCC1`: the growth inhibition runs as follows: (at 40 µM) 6.19%; under setting [1], 7.28%; under setting [2], 3.8%; under setting [3], 6.18%.
In the case of `O=C(COc1ccc(Br)cc1F)NC1CCN(Cc2ccccc2)CC1`, the growth inhibition was 27.4% (at 40 µM), 12.6% under setting [1], 2.81% under setting [2] and 5.41% under setting [3].
The like results for `O=C(C1COc2ccccc2O1)N1CCN(Cc2ccc3c(c2)OCO3)CC1` (stereo unspecified) were, in that order, 7.29%, 6.43%, -1.59% and 5.57%.
On to `CC1CN(CCCCOc2ccc(C(C)C)cc2)CC(C)O1` (stereo unspecified), for which the growth inhibition was 26.4% (at 40 µM), 12.1% under setting [1], 2.42% under setting [2] and 7.83% under setting [3].
The like results for `CCCCCCOc1ccc(CN2CCN(CCO)CC2)cc1` were, in that order, 33.4%, 20.7%, 7.37% and 13.6%.
Regarding `O=C(OCn1ncc(Cl)c(Cl)c1=O)c1ccc(C(F)(F)F)cc1`, the growth inhibition reads like this: (at 40 µM) 46.7%; under setting [1], 50.9%; under setting [2], 13.4%; under setting [3], 16.2%.
The like results for `C=C(C)C1CC=C(CN2CCC(C(=O)OCC)CC2)CC1` (stereo unspecified) were, in that order, 1.06% (inactive), -2.77%, 0.148% and 1.89%.
The like results for `Cc1nc(NC(=O)c2ccccc2)sc1-c1csc(NCc2ccccc2)n1` were, in that order, 32.7%, 20%, 6.67% and 15%.
In the case of `Clc1cc(Br)ccc1OCCOCCN1CCOCC1`, the growth inhibition reads like this: (at 40 µM) 8.89%; under setting [1], 8.52%; under setting [2], 2.58%; under setting [3], 3.79%.
